Test results: patent publication US12186426B2, “Solid dosage form” (IX BIOPHARMA LTD, priority 2009, dated 2025)
Values joined by “and” are separate entries in the source; they are usually repeats but may differ in a detail not shown here. Equal values may be shown once.

Experiments:
[1] = Ketamine wafer pharmacokinetics and absolute bioavailability, crossover study in healthy volunteers; conditions: for extrapolated portion of the AUC, AUCextr: range over subjects; for time of first quantifiable plasma concentration: all subjects
[2] = Ketamine wafer safety and tolerability (Likert, Bond and Lader scales) in healthy volunteers; format: in vivo, human
Procedure: Safety assessments included scheduled adverse event (AE) probes, spontaneous AE reporting, routine laboratory investigations, 12-lead electrocardiograms (ECGs) and vital sign evaluation during a 24 hour period from start of dosing. A full physical examination was performed before the first dosing occasion and 24 hours after the second dosing occasion.
Local tolerability was assessed, by using Likert scales, at pre dose, 5, 10, 15, 30 and 45 minutes and one hour post dose administration. Modified Bond and Lader scales to assess sedation and altered perception, by using the three factors “alertness”, “contentedness” and “calmness”, were performed at pre dose, 30 minutes post dose and at hours 1, 1.5, 2, 2.5, 3, 4, 6, 8, 12, and 24 hours post dose administration.
The Bond and Lader scales comprise a total of 16 100-mm lines anchored at either end by antonyms. Participants marked their current subjective state between the antonyms on the line. Each line was scored as millimetres to the mark from the negative antonym. From the resultant scores, three measures derived by factor analysis were isolated. […]

[3] = format: physicochemical; conditions: pH 6.8
[4] = gmean of eight volunteers, 10 mg as 30 minute IV infusion
[5] = human, plasma, other: sublingual, 25 mg
[6] = individual subjects, 10 mg as 30 minute IV infusion
[7] = individual subjects, 25 mg SL wafer
[8] = median of eight volunteers, 25 mg SL

**Q.** What does the source list for CNC1(c2ccccc2Cl)CCCCC1=O (racemic) [RS ketamine, ketamine]?
**A.** extrapolated portion of the AUC, AUCextr ([1]; IV 10 mg): 3-7%; time of first quantifiable plasma concentration ([1]; IV dosing 10 mg): five; extrapolated portion of the AUC, AUCextr ([1]; SL 25 mg): 2-9%; time of first quantifiable plasma concentration ([1]; SL dosing 25 mg): five; Cmax,I [1, 4]: 128.0 ng/mL; VZ [1, 4]: 237 L; MRT ([1]; human, plasma, iv, 10 mg): 3.9 h; half-life ([1]; human, plasma, iv, 10 mg): 7 h; AUC ([1]; human, plasma, iv, 10 mg, AUCINF__, gmean of eight volunteers, 10 mg as 30 minute IV infusion): 255 ng·h/mL; AUC ([1]; human, plasma, iv, 10 mg, AUCINF__, individual subjects, 10 mg as 30 minute IV infusion): 255 ng·h/mL; clearance ([1]; human, plasma, iv, 10 mg, CL, gmean of eight volunteers, 10 mg as 30 minute IV infusion): 654 mL/min; clearance ([1]; human, plasma, iv, 10 mg, CL, individual subjects, 10 mg as 30 minute IV infusion): 655 mL/min; Cmax ([1]; human, plasma, iv, 10 mg, Cmax,I, gmean of eight volunteers, 10 mg as 30 minute IV infusion): 128 ng/mL; clearance ([1]; human, plasma, iv, 10 mg, Median CL, IV dosing 10 mg): 628 mL/min; Tmax ([1]; human, plasma, iv, 10 mg, tmax,IV, individual subjects, 10 mg as 30 minute IV infusion): 0.5 h; Tmax ([1]; human, plasma, iv, 10 mg, tmax,IV, median of eight volunteers, 10 mg as 30 minute IV infusion): 0.5 h; MRT [1, 5]: 3.8 h; bioavailability [1, 5]: 23 to 38%; AUC ([1]; human, plasma, other: sublingual, 25 mg, AUCINF_, gmean of eight volunteers, 25 mg SL wafer): 185 ng·h/mL; AUC ([1]; human, plasma, other: sublingual, 25 mg, AUCINF_, individual subjects, 25 mg SL wafer): 184 ng·h/mL; Cmax ([1]; human, plasma, other: sublingual, 25 mg, Cmax,S, gmean of eight volunteers, 25 mg SL wafer): 71.1 ng/mL; Tmax ([1]; human, plasma, other: sublingual, 25 mg, tmax,SL, median of eight volunteers, 25 mg SL wafer): 0.75 h; AUCINF__ [1, 6]: 270.02 ng·h/mL and 289.22 ng·h/mL and 299.44 ng·h/mL and 261.00 ng·h/mL and 167.21 ng·h/mL and 282.73 ng·h/mL and 243.24 ng·h/mL; CL [1, 6]: 37.03 L/h and 34.58 L/h and 33.40 L/h and 38.31 L/h and 59.81 L/h and 35.37 L/h and 41.11 L/h; VZ [1, 6]: 283 L and 253 L and 300 L and 164 L and 385 L and 375 L and 126 L and 158 L; t1/2,I [1, 6]: 5.0 h and 4.7 h and 6.0 h and 3.4 h and 4.3 h and 2.5 h and 2.7 h; tmax,IV [1, 6]: 0.6 h and 0.52 h; Cmax,I ([1]; individual subjects, 10 mg as 30 minute IV infusion, plasma): 190.2 ng/mL and 124.2 ng/mL and 120.3 ng/mL and 101.8 ng/mL and 83.18 ng/mL and 81.12 ng/mL and 226.6 ng/mL and 163.2 ng/mL; bioavailability F ([1]; individual subjects, 25 mg SL vs 10 mg IV): 38% and 29% and 30% and 23% and 28% and 27%; AUCINF_ [1, 7]: 203.47 ng·h/mL and 171.90 ng·h/mL and 211.33 ng·h/mL and 186.14 ng·h/mL and 161.64 ng·h/mL and 202.89 ng·h/mL and 162.52 ng·h/mL; t1/2, [1, 7]: 3.2 h and 5.5 h and 3.5 h and 2.3 h and 4.6 h and 5.1 h and 2.9 h and 1.8 h; tmax,SL [1, 7]: 1 h and 0.58 h and 0.25 h; Cmax,S ([1]; individual subjects, 25 mg SL wafer, plasma): 78.77 ng/mL and 60.24 ng/mL and 50.02 ng/mL and 76.12 ng/mL and 51.79 ng/mL and 61.17 ng/mL and 88.76 ng/mL and 128.2 ng/mL; mean absorption time MAT ([1]; individual subjects, 25 mg SL, MRTSL−MRTIV): −1.1 hr (2×) and 0.86 hr and −0.56 hr and 0.20 hr and 0.64 hr and 1.1 hr and −0.83 hr; t1/2,I ([1]; median of eight volunteers, 10 mg as 30 minute IV infusion): 4.5 h; bioavailability F [1, 8]: 29 [27, 31] %; mean absorption time MAT [1, 8]: -0.18 h; t1/2, ([1]; median of eight volunteers, 25 mg SL wafer): 3.4 h; mean absorption time MAT, Min-Max ([1]; minimum and maximum of eight volunteers, 25 mg SL): -1.1 to 1.1 h; Bond and Lader mood rating scales (alertness, contentedness, calmness) ([2]; 10 mg IV and 25 mg SL, 24 hr observation): no clear trends for effects; ECG, vital signs, haematology, clinical chemistry, urinalysis ([2]; healthy volunteers): no clinically relevant changes or trends for abnormalities

**Q.** Which “dissolution rate compared with wafer” value [3] does the source give for Cc1ncc2n1-c1ccc(Cl)cc1C(c1ccccc1F)=NC2 [midazolam powder, midazolam] here?
**A.** considerably slower
